# Legend:
# pan-CYP = experiment: Depletion of 1 µM filapixant in human hepatocytes in absence and presence of CYP3A4 selective and pan-CYP inhibitors; format: in vitro ADME; details: human, probe filapixant (1 µM, non-labeled), read-out: % of control CLint inhibited
# [1] = as above; format: in vitro ADME; details: 1 µM filapixant, in presence of the inhibitor
# CYP3A4 [2] = experiment: as above; format: in vitro ADME; details: human, probe filapixant (1 µM, non-labeled), read-out: % of control CLint inhibited
# [3] = Incubation of 1 µM [3H]filapixant in human liver microsomes with CYP isoform-selective inhibitors; format: in vitro ADME
# [4] = Clinical drug-drug interaction study filapixant with itraconazole: pharmacokinetics; format: in vivo, human; details: plasma, study day 4, itraconazole 200 mg once daily oral solution
# Experimental: Spontaneous reported adverse events were recorded as well adverse events that were reported after open-ended and non-leading verbal questioning of the participants to avoid bias. In addition, itraconazole concentrations were measured in plasma at selected time points to confirm that relevant inhibitory plasma levels were achieved.
# The study was conducted in a single-center, open-label, fixed sequence design with two periods.
# PK parameters were calculated by a non-compartmental analysis using the program WinNonlin version 5.3 (Pharsight Corporation, St. Louis, MO, USA), with the Automation Extension (version 2.90, Bayer Pharma AG, Wuppertal, Germany). The statistical evaluation was performed by using the software package SAS release 9.2 (SAS Institute Inc., Cary, NC, USA). All analyses were exploratory. Therefore, no multiplicity adjustments were performed.
# The main PK metrics AUC and Cmax were statistically analyzed, assuming log-normally distributed data. Mean differences between treatments (and their standard error) were determined for logarithmized PK metrics. A total of 90% CIs for treatment differences were determined as well, applying standard methodology for log-normally distributed data. […] Only participants providing a valid PK profile from both study periods were to be included in the primary analysis.
# CYP2J2 = molecular target: T1, CYP2J2 (Homo sapiens, UniProt P51589); experiment: Incubation of filapixant with human recombinant CYP2J2 (Supersomes); format: in vitro ADME; details: 1 µM [3H]filapixant, CYP2J2, 60 min
# T1 construct: purchased
# T1 sequence (P51589 1-502): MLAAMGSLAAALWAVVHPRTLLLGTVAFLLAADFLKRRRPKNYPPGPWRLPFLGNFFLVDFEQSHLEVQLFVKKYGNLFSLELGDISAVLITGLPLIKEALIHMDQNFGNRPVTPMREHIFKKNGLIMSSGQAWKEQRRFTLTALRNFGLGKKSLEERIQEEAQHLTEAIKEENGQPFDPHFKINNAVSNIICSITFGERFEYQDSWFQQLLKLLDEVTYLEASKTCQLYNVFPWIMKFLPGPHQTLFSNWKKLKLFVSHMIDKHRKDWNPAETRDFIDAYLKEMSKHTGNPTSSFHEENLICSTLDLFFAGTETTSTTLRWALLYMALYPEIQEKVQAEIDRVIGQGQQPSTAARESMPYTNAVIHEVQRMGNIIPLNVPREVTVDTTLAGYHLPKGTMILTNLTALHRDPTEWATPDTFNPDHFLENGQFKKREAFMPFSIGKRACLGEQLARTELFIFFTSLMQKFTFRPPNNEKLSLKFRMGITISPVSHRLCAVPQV
# CYP2D6 = molecular target: T2, CYP2D6 (Homo sapiens, UniProt P10635); experiment: Incubation of filapixant with human recombinant CYP2D6 (Supersomes); format: in vitro ADME; details: 1 µM [3H]filapixant, CYP2D6, 60 min
# T2 construct: purchased
# CYP1A1 = molecular target: T3, CYP1A1 (Homo sapiens, UniProt P04798); experiment: Incubation of filapixant with human recombinant CYP1A1 (Supersomes); format: in vitro ADME; details: 1 µM [3H]filapixant, CYP1A1, 60 min
# T3 construct: purchased
# T3 sequence (P04798 1-512): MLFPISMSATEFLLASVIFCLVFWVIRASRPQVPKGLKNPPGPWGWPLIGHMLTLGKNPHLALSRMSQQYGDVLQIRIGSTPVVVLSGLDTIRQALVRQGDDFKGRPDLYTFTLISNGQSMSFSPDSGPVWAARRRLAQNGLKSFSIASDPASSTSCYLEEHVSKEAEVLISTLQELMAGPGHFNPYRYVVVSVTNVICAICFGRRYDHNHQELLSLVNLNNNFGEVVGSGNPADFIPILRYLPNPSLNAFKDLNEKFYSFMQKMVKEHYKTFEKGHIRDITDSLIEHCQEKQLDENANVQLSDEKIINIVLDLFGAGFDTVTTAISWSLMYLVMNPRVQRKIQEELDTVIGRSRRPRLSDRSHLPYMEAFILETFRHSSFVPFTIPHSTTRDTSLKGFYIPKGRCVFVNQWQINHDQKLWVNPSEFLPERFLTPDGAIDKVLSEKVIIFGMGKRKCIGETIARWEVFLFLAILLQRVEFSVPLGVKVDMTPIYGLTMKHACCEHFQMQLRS
# [5] = Biotransformation and enzyme kinetics of filapixant in human liver microsomes; format: in vitro ADME; details: [3H]filapixant 1 µM, pooled human liver microsomes, 1 h of incubation, n = 1
# Experimental: (§1) The incubations were analyzed by high-performance liquid chromatography (HPLC) with tandem mass spectroscopy (MS/MS) followed by off-line radioactivity detection to generate metabolite profiles and elucidate or confirm the structures of the metabolites formed.
# CYP3A4 [6] = molecular target: T4, CYP3A4 (Homo sapiens, UniProt P08684); experiment: Incubation of filapixant with human recombinant CYP3A4 (Supersomes); format: in vitro ADME; details: for Remaining drug and formation of metabolites, Peak Area: 1 µM [3H]filapixant, CYP3A4, 60 min; for Vmax of metabolite formation: filapixant in recombinant human CYP3A4 (25 pmol/mL), 20 min incubation
# T4 construct: purchased
# [7] = Biotransformation of [3H]filapixant in human hepatocytes; format: in vitro ADME; details: [3H]filapixant 1 µM, 4 h of incubation, range in three batches
# Experimental: as §1
# CYP3A5 = molecular target: T5, CYP3A5 (Homo sapiens, UniProt P20815); experiment: Incubation of [3H]filapixant with human recombinant CYP3A5 (Supersomes); format: in vitro ADME; details: 1 µM [3H]filapixant, CYP3A5, 60 min
# T5 construct: purchased
# [8] = Biotransformation and enzyme kinetics of filapixant in human liver microsomes; format: in vitro ADME; details: for Vmax of metabolite formation: filapixant in human liver microsomes (0.5 mg/mL), 30 min incubation; for Km at 30 min: human, human liver microsomes, probe filapixant (substrate), read-out: Km,app of metabolite formation
# CYP4F2 = molecular target: T6, CYP4F2 (Homo sapiens, UniProt P78329); experiment: Incubation of [3H]filapixant with human recombinant CYP4F2 (Supersomes); format: in vitro ADME; details: 1 µM [3H]filapixant, CYP4F2, 60 min
# T6 construct: purchased
# T6 sequence (P78329 5-520): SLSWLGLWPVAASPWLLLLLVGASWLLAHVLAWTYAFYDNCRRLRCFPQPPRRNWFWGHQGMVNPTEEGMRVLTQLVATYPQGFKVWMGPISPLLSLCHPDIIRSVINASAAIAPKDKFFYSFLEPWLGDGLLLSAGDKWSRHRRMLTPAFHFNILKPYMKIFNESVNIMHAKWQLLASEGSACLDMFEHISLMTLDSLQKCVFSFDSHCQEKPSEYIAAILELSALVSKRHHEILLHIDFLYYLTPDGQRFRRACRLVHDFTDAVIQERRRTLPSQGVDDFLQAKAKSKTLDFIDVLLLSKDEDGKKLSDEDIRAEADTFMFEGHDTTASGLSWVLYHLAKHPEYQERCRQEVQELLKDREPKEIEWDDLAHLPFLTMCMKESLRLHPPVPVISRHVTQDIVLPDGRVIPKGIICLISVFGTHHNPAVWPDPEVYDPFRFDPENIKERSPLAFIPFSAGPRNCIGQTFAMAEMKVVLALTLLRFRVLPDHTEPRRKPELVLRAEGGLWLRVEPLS
# CYP2C9 = molecular target: T7, CYP2C9 (Homo sapiens, UniProt P11712); experiment: Incubation of [3H]filapixant with human recombinant CYP2C9 (Supersomes); format: in vitro ADME; details: 1 µM [3H]filapixant, CYP2C9, 60 min
# T7 construct: purchased
# CYP2B6 = molecular target: T8, CYP2B6 (Homo sapiens, UniProt P20813); experiment: Incubation of [3H]filapixant with human recombinant CYP2B6 (Supersomes); format: in vitro ADME; details: 1 µM [3H]filapixant, CYP2B6, 60 min
# T8 construct: purchased
# T8 sequence (P20813 1-491): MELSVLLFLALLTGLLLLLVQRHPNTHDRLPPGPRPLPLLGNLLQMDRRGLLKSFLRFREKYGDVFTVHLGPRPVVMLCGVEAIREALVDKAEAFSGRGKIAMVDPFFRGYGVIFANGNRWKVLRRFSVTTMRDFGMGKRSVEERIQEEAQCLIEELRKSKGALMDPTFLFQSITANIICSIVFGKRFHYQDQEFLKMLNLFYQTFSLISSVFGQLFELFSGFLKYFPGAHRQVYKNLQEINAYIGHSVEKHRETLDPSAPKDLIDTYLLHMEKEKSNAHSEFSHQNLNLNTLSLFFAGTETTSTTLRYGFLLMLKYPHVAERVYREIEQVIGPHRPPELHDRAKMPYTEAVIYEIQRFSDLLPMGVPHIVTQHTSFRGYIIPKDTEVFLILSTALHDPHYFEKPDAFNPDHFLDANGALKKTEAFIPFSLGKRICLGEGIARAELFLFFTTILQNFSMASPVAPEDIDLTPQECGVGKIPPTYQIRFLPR
# T4 sequence (P08684 whole entry): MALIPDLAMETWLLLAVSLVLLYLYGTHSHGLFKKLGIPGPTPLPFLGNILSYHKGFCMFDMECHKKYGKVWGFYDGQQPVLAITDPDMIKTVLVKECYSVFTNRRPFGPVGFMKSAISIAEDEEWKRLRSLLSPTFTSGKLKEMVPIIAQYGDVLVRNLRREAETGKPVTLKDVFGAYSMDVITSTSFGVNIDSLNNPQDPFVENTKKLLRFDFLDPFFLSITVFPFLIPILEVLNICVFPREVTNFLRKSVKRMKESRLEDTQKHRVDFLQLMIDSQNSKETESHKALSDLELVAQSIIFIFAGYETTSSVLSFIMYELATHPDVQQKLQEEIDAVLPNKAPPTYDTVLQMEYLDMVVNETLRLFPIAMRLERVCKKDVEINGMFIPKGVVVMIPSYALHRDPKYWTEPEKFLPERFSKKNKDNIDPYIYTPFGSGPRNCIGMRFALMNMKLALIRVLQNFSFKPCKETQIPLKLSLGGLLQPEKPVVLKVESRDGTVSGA
# T5 sequence (P20815 whole entry): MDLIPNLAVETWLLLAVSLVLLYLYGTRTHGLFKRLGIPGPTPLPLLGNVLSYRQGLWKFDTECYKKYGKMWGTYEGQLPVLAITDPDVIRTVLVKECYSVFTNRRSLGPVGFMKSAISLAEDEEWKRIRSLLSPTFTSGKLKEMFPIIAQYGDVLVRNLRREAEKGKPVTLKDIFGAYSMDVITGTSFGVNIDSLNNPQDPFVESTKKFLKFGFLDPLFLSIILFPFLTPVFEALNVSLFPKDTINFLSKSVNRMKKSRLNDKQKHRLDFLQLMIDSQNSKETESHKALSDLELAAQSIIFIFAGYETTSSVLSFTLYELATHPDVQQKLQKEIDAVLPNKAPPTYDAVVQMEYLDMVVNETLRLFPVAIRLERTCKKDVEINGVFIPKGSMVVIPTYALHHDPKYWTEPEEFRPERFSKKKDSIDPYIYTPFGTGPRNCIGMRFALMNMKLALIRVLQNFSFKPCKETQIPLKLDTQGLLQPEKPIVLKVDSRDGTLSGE
# T2 sequence (P10635 whole entry): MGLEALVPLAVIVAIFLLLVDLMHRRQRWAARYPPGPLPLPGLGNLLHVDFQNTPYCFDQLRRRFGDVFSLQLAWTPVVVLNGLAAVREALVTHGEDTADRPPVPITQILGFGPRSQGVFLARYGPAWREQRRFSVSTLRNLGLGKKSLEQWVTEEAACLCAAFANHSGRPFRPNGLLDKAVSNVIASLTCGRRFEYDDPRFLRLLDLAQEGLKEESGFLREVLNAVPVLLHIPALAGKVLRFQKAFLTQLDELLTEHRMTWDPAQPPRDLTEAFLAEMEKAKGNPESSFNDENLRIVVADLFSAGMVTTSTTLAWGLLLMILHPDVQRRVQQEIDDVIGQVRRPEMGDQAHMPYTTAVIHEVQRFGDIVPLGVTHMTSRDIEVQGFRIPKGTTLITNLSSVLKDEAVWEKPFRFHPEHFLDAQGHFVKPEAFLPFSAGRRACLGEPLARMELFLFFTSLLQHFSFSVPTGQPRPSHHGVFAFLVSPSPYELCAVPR
# T7 sequence (P11712 whole entry): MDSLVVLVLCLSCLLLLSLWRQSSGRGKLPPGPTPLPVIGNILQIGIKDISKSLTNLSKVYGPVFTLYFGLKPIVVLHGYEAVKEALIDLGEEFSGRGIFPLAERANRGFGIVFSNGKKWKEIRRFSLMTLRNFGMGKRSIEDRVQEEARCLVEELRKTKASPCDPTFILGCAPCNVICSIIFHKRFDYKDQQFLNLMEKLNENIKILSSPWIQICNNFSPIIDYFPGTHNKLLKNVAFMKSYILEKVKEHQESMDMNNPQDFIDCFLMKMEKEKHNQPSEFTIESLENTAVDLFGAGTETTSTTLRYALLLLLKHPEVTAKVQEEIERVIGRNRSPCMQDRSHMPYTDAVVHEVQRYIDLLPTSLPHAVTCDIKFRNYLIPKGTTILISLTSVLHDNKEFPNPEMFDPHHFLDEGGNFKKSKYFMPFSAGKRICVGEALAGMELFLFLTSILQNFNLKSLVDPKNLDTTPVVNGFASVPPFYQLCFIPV
Compound,Reduction of apparent CLint of filapixant compared to untreated control [1] [%],"Remaining drug and formation of metabolites, Peak Area (CYP1A1)","Recovery of filapixant and metabolite formation, Liver Microsomes [5]","Remaining drug and formation of metabolites, Peak Area (CYP3A4 [6])","Recovery of filapixant and metabolite formation, Hepatocytes [7]","Remaining drug and formation of metabolites, Peak Area (CYP3A5)",Vmax of metabolite formation [8] [peak area/pmol CYP/min],Km at 30 min [8] [µM],Vmax of metabolite formation (CYP3A4 [6]) [peak area/pmol CYP/min],further results
"Nn1nnc2ccccc21 [ABT, 1-Aminobenzotriazol]",90 to 95,,,,,,,,,inhibition at 1000 µM (pan-CYP): 94.5%
"CCC(C)n1ncn(-c2ccc(N3CCN(c4ccc(OCC5COC(Cn6cncn6)(c6ccc(Cl)cc6Cl)O5)cc4)CC3)cc2)c1=O (stereo not shown) [Itraconazole, itraconazole]",90 to 95,,,,,,,,,inhibition at 2 µM (CYP3A4 [2]): 94.4%; Effect of inhibitor on drug depletion of [3H]filapixant and formation of metabolites [3]: inhibited; Mean maximum concentrations of itraconazole [4]: 1014.6 µg/L
C[C@@H](NC(=O)c1cc(OC[C@H]2CN(C)CCO2)cc(-c2ncc(CO)s2)c1)c1cnc(C(F)(F)F)nc1 [M-3],,2.9 % of Radioactivity,0.9 % of radioactivity,0.5 % of Radioactivity,0.4–0.8 % of radioactivity,,,,,"Remaining drug and formation of metabolites, Peak Area (CYP2J2): 0.9 % of Radioactivity; Remaining drug and formation of metabolites, Peak Area (CYP2D6): 5.4 % of Radioactivity"
Cc1cnc(-c2cc(OC[C@H]3CN(C)C(=O)CO3)cc(C(=O)N[C@H](C)c3cnc(C(F)(F)F)nc3)c2)s1 [M-4],,6.5 % of Radioactivity,7.6 % of radioactivity,6.1 % of Radioactivity,1.0–7.5 % of radioactivity,1.5 % of Radioactivity,1.02E+04,7.9,9.20E+03,"Vmax of metabolite formation (Michaelis-Menten plot, Figure S8) ([8]; human liver microsomes 0.5 mg/mL, 30 min, rate axis: area metabolite/min/mg): 1.021e+4; Vmax of metabolite formation (Michaelis-Menten plot, Figure S7) (CYP3A4 [6]; recombinant CYP3A4 25 pmol/mL, 20 min, rate axis: area metabolite/min/mg): 9202."
C[C@@H](NC(=O)c1cc(OC[C@H]2CN(C)CCO2)cc(-c2ncc(C(=O)O)s2)c1)c1cnc(C(F)(F)F)nc1 [M-5],,,,0.4 % of Radioactivity,0–0.2 % of radioactivity,,,,,"Remaining drug and formation of metabolites, Peak Area (CYP4F2): 0.5 % of Radioactivity; Remaining drug and formation of metabolites, Peak Area (CYP2C9): 0.2 % of Radioactivity"
Cc1cnc(-c2cc(O)cc(C(=O)N[C@H](C)c3cnc(C(F)(F)F)nc3)c2)s1 [M-6],,0.5 % of Radioactivity,4.4 % of radioactivity,6.0 % of Radioactivity,,0.8 % of Radioactivity,1.32E+05,68,7.78E+04,"Remaining drug and formation of metabolites, Peak Area (CYP2B6): 0.4 % of Radioactivity"

# Reference: PMC12564180 (International Journal of Molecular Sciences, 2025)
